We go through 13 compounds from PubChem BioAssay (NCI).

“And” between values parts separate entries of the source, which are not always exact repeats. Equal entries are not always repeated.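 Test compounds were applied to cells in 96-well plates for 48 hours at 5 doses. The concentration for 50% growth inhibition is given as GI50. TGI: total growth inhibition.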

The subject of the first experiment is SK-MEL-5 melanoma. The experiment is described as follows: DTP human tumour cell line panel, 48 h.
In the case of `CCn1c(=O)c2c(=O)c3c4c(oc3oc2c2ccccc21)C(=O)c1ccccc1C4=O`, the GI50 is more than 100 µM and the TGI is more than 100 µM.
Turning to `O=C1c2ccccc2-c2c1c1ccccc1c(=O)n2CCCCl`, the GI50 was 5.92 µM and the TGI was more than 100 µM.
The like results for `COc1cc2c3c(n(CCCOC(=O)C(F)(F)F)c(=O)c2cc1OC)-c1cc2c(cc1C3=O)OCO2` were, in that order, 0.402 µM and 1.24 µM.
The like results for `COc1cc2c(c(OC)c1OC)-c1ncc3cc4c(cc3c1C2)OCO4` were, in that order, 17.4 µM and 36.5 µM.
The like results for `CC1=C(C(=O)Nc2ccc(Cl)c(Cl)c2)C(c2cccc(Oc3ccccc3)c2)NC(=O)N1` (stereo not given) were, in that order, 8.07 µM and 17 µM.
`CCOc1ccncc1[N+](=O)[O-]` returned a TGI of more than 100 µM.
Take `O=C(Nc1ccc(F)cc1)c1cc(S(=O)(=O)Nc2nc3ccccc3o2)c(SCc2ccccc2)cc1Cl`: the GI50 is 17.9 µM and the concentration for total growth inhibition (TGI) was 31.9 µM.
The like results for `O=C1NC(=O)C(c2cccc([N+](=O)[O-])c2)=C1Nc1cc(Cl)c(O)c(Cl)c1` were, in that order, 24.4 µM and more than 25 µM.
For `COC(=O)[C@@H](C)C[C@H](Cc1ccccc1)NC(=O)c1csc([C@@H](C[C@H](C(C)C)N(C)C(=O)[C@@H](NC(=O)[C@H]2CCCCN2C)C2CCCCC2)OC(C)=O)n1`, the TGI was 0.0131 µM and 0.0115 µM.
In the case of `NC(=O)OCCn1cc(-c2nc(-c3c[nH]c4ncccc34)cs2)c2ccccc21`, the GI50 is 1.41 µM and the TGI worked out at 2.85 µM.
Take `NCCSc1nc(-c2ccccc2)c(-c2ccccc2)o1`: the TGI was more than 100 µM.
As to `Cc1cc(C)c(NC(=O)c2sc3nc4c(cc3c2N)CN(Cc2ccccc2)CC4)c(C)c1`, the GI50 was 1.47 µM and the TGI worked out at 11.5 µM.

For the next experiment, the system named is BT-549 breast. The experiment is described as follows: DTP human tumour cell line panel, 48 h.
For the compound `CCn1c(=O)c2c(=O)c3c4c(oc3oc2c2ccccc21)C(=O)c1ccccc1C4=O`, the GI50 is more than 36 µM and the TGI was more than 100 µM.
The like results for `C1=C\COCc2cc(ccc2OCCN2CCCC2)Nc2nccc(n2)-c2cccc(c2)COC/1` were, in that order, 4.67 µM and 6.66 µM.
The like results for `O=C1c2ccccc2-c2c1c1ccccc1c(=O)n2CCCCl` were, in that order, 14.6 µM and 58.3 µM.
The like results for `COc1cc2c3c(n(CCCOC(=O)C(F)(F)F)c(=O)c2cc1OC)-c1cc2c(cc1C3=O)OCO2` were, in that order, 0.202 µM and 68.6 µM.
Turning to `COc1cc2c(c(OC)c1OC)-c1ncc3cc4c(cc3c1C2)OCO4`, the GI50 is 3.76 µM and the TGI came out at 20.1 µM.
The like results for `CC1=C(C(=O)Nc2ccc(Cl)c(Cl)c2)C(c2cccc(Oc3ccccc3)c2)NC(=O)N1` (stereo not given) were, in that order, 4.23 µM and 14.3 µM.
`CCOc1ccncc1[N+](=O)[O-]`: the TGI was more than 100 µM.
On to `O=C(Nc1ccc(F)cc1)c1cc(S(=O)(=O)Nc2nc3ccccc3o2)c(SCc2ccccc2)cc1Cl`, for which the GI50 is 18.5 µM and the TGI came to 38.9 µM.
On to `O=C1NC(=O)C(c2cccc([N+](=O)[O-])c2)=C1Nc1cc(Cl)c(O)c(Cl)c1`, for which the GI50 is more than 16.2 µM and the TGI is more than 25 µM.
Consider `COC(=O)[C@@H](C)C[C@H](Cc1ccccc1)NC(=O)c1csc([C@@H](C[C@H](C(C)C)N(C)C(=O)[C@@H](NC(=O)[C@H]2CCCCN2C)C2CCCCC2)OC(C)=O)n1`, for which the GI50 is 0.000701 µM and 0.0025 µM.
`NC(=O)OCCn1cc(-c2nc(-c3c[nH]c4ncccc34)cs2)c2ccccc21`: the GI50 is 1.5 µM and the concentration for total growth inhibition (TGI) turned out to be 6.04 µM.
`NCCSc1nc(-c2ccccc2)c(-c2ccccc2)o1` displayed a TGI of more than 100 µM.
With `Cc1cc(C)c(NC(=O)c2sc3nc4c(cc3c2N)CN(Cc2ccccc2)CC4)c(C)c1`, the GI50 was 4.05 µM and the TGI worked out at 57.6 µM.

The test system of a further experiment is PC-3 prostate. The experiment is described as follows: DTP human tumour cell line panel, 48 h.
Take `CCn1c(=O)c2c(=O)c3c4c(oc3oc2c2ccccc21)C(=O)c1ccccc1C4=O`: the GI50 is 8.71 µM and the TGI was more than 100 µM.
The like results for `C1=C\COCc2cc(ccc2OCCN2CCCC2)Nc2nccc(n2)-c2cccc(c2)COC/1` were, in that order, 1.61 µM and 5.43 µM.
The like results for `O=C1c2ccccc2-c2c1c1ccccc1c(=O)n2CCCCl` were, in that order, 24.9 µM and more than 100 µM.
In the case of `COc1cc2c3c(n(CCCOC(=O)C(F)(F)F)c(=O)c2cc1OC)-c1cc2c(cc1C3=O)OCO2`, the GI50 was 0.0532 µM and the TGI was more than 100 µM.
The like results for `COc1cc2c(c(OC)c1OC)-c1ncc3cc4c(cc3c1C2)OCO4` were, in that order, 34.7 µM and more than 100 µM.
On to `CC1=C(C(=O)Nc2ccc(Cl)c(Cl)c2)C(c2cccc(Oc3ccccc3)c2)NC(=O)N1` (stereo not given), for which the GI50 is 16.3 µM and the TGI was more than 50 µM.
As for `CCOc1ccncc1[N+](=O)[O-]`, the TGI was more than 100 µM.
Turning to `O=C(Nc1ccc(F)cc1)c1cc(S(=O)(=O)Nc2nc3ccccc3o2)c(SCc2ccccc2)cc1Cl`, the GI50 was 24.4 µM and the TGI is 53.5 µM.
The like results for `O=C1NC(=O)C(c2cccc([N+](=O)[O-])c2)=C1Nc1cc(Cl)c(O)c(Cl)c1` were, in that order, more than 25 µM and more than 25 µM.
With `COC(=O)[C@@H](C)C[C@H](Cc1ccccc1)NC(=O)c1csc([C@@H](C[C@H](C(C)C)N(C)C(=O)[C@@H](NC(=O)[C@H]2CCCCN2C)C2CCCCC2)OC(C)=O)n1`, the GI50 is 0.000435 µM and 0.0025 µM; the TGI was determined as 20.9 µM.
As for `NC(=O)OCCn1cc(-c2nc(-c3c[nH]c4ncccc34)cs2)c2ccccc21`, the GI50 was 1.87 µM and the TGI is 14.6 µM.
Turning to `NCCSc1nc(-c2ccccc2)c(-c2ccccc2)o1`, the TGI was more than 100 µM.
On to `Cc1cc(C)c(NC(=O)c2sc3nc4c(cc3c2N)CN(Cc2ccccc2)CC4)c(C)c1`, for which the GI50 was 3.13 µM and the TGI is more than 100 µM.

In the next experiment the test system is COLO 205 colon. The experiment is described as follows: DTP human tumour cell line panel, 48 h.
For the compound `CCn1c(=O)c2c(=O)c3c4c(oc3oc2c2ccccc21)C(=O)c1ccccc1C4=O`, the GI50 was more than 100 µM and the TGI was more than 100 µM.
For the compound `C1=C\COCc2cc(ccc2OCCN2CCCC2)Nc2nccc(n2)-c2cccc(c2)COC/1`, the GI50 is 1.35 µM and the TGI worked out at 4.29 µM.
The like results for `COc1cc2c3c(n(CCCOC(=O)C(F)(F)F)c(=O)c2cc1OC)-c1cc2c(cc1C3=O)OCO2` were, in that order, 0.519 µM and more than 100 µM.
In the case of `COc1cc2c(c(OC)c1OC)-c1ncc3cc4c(cc3c1C2)OCO4`, the GI50 is 29.7 µM and the total growth inhibition concentration (TGI) was more than 100 µM.
The like results for `CC1=C(C(=O)Nc2ccc(Cl)c(Cl)c2)C(c2cccc(Oc3ccccc3)c2)NC(=O)N1` (stereo not given) were, in that order, 12.6 µM and 35.7 µM.
The like results for `O=C(Nc1ccc(F)cc1)c1cc(S(=O)(=O)Nc2nc3ccccc3o2)c(SCc2ccccc2)cc1Cl` were, in that order, 46.2 µM and more than 100 µM.
As to `O=C1NC(=O)C(c2cccc([N+](=O)[O-])c2)=C1Nc1cc(Cl)c(O)c(Cl)c1`, the GI50 is more than 25 µM and the TGI was more than 25 µM.
Turning to `COC(=O)[C@@H](C)C[C@H](Cc1ccccc1)NC(=O)c1csc([C@@H](C[C@H](C(C)C)N(C)C(=O)[C@@H](NC(=O)[C@H]2CCCCN2C)C2CCCCC2)OC(C)=O)n1`, the GI50 is 0.000301 µM and < 0.0025 µM; the TGI was 0.0026 µM and < 0.0025 µM.
Regarding `NC(=O)OCCn1cc(-c2nc(-c3c[nH]c4ncccc34)cs2)c2ccccc21`, the GI50 is 2.06 µM and the total growth inhibition concentration (TGI) was found to be 9.57 µM.
For the compound `NCCSc1nc(-c2ccccc2)c(-c2ccccc2)o1`, the TGI was more than 100 µM.
As to `Cc1cc(C)c(NC(=O)c2sc3nc4c(cc3c2N)CN(Cc2ccccc2)CC4)c(C)c1`, the GI50 was 2.98 µM and the TGI came out at 10.1 µM.

The next experiment deals with SK-MEL-28 melanoma. Put plainly: DTP human tumour cell line panel, 48 h.
Regarding `CCn1c(=O)c2c(=O)c3c4c(oc3oc2c2ccccc21)C(=O)c1ccccc1C4=O`, the GI50 is more than 100 µM and the TGI was more than 100 µM.
As to `C1=C\COCc2cc(ccc2OCCN2CCCC2)Nc2nccc(n2)-c2cccc(c2)COC/1`, the GI50 was 2.1 µM and the TGI stood at 5.33 µM.
The like results for `O=C1c2ccccc2-c2c1c1ccccc1c(=O)n2CCCCl` were, in that order, more than 100 µM and more than 100 µM.
The compound `COc1cc2c3c(n(CCCOC(=O)C(F)(F)F)c(=O)c2cc1OC)-c1cc2c(cc1C3=O)OCO2` yielded a TGI of more than 100 µM.
For `COc1cc2c(c(OC)c1OC)-c1ncc3cc4c(cc3c1C2)OCO4`, the GI50 is 54.6 µM and the TGI was more than 100 µM.
The like results for `CC1=C(C(=O)Nc2ccc(Cl)c(Cl)c2)C(c2cccc(Oc3ccccc3)c2)NC(=O)N1` (stereo not given) were, in that order, 11.1 µM and 33.2 µM.
Take `CCOc1ccncc1[N+](=O)[O-]`: the TGI is more than 100 µM.
Take `O=C(Nc1ccc(F)cc1)c1cc(S(=O)(=O)Nc2nc3ccccc3o2)c(SCc2ccccc2)cc1Cl`: the GI50 is 25.8 µM and the TGI is 58.2 µM.
`O=C1NC(=O)C(c2cccc([N+](=O)[O-])c2)=C1Nc1cc(Cl)c(O)c(Cl)c1`: the GI50 was more than 25 µM and the total growth inhibition concentration (TGI) was more than 25 µM.
